According to patent US9975888B2, “Aryl linked imidazole and triazole derivatives and methods of use thereof for improving the pharmacokinetics of a drug” (MERCK SHARP & DOHME CORP., priority 2013, dated 2018):
Like-named read-outs stand apart in the source and are kept apart here.

Experiments:
Format in all cases: biochemical
[1] = target: T1, CYP1A2 (Homo sapiens, UniProt P05177); experiment: Cocktail assay for CYPs, phenacetin O-deethylation (CYP1A2), human liver microsomes; settings: 10 μM phenacetin, 0.1 mg/mL human liver microsomes, 10 min at 37° C.; read-out: CYP IC50 (nM) 1A2
T1 construct: 0.1 mg/mL protein human liver microsomes (BD Gentest); tissue BD Gentest; host or cells: human liver microsomes
T1 sequence (P05177 1-516): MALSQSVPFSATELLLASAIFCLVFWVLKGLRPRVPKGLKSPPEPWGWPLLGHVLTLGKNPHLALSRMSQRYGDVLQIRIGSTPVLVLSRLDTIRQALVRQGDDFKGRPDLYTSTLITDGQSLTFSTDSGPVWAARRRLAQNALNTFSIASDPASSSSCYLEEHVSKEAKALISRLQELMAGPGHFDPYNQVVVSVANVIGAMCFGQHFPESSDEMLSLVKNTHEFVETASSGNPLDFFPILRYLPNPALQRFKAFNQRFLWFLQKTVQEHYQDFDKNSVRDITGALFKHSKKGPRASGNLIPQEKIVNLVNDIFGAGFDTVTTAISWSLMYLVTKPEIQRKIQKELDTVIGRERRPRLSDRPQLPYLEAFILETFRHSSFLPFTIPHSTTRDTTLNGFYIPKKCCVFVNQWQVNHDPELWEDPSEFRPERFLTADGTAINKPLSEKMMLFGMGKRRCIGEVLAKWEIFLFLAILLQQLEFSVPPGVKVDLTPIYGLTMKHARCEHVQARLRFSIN
Method in brief: (§1)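 Pooled human liver microsomes (0.1 mg/mL) with a probe cocktail of 10 μM phenacetin, 5 μM dextromethorphan and 2 μM midazolam plus NADPH, pH 7.4, 10 min at 37° C. Each metabolite was quantified by LC/MS/MS against a tolbutamide internal standard. IC50 came from % inhibition at 6 concentrations (e.g. 0.0032–10 μM) by non-linear regression.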

[2] = target: T2, CYP2C9 (Homo sapiens, UniProt P11712); experiment: Cocktail assay for CYPs, diclofenac 4′-hydroxylation (CYP2C9), human liver microsomes; settings: 0.1 mg/mL human liver microsomes, 10 min at 37° C.
T2 construct: 0.1 mg/mL protein human liver microsomes (BD Gentest); tissue BD Gentest; host or cells: human liver microsomes
T2 sequence (P11712 whole entry): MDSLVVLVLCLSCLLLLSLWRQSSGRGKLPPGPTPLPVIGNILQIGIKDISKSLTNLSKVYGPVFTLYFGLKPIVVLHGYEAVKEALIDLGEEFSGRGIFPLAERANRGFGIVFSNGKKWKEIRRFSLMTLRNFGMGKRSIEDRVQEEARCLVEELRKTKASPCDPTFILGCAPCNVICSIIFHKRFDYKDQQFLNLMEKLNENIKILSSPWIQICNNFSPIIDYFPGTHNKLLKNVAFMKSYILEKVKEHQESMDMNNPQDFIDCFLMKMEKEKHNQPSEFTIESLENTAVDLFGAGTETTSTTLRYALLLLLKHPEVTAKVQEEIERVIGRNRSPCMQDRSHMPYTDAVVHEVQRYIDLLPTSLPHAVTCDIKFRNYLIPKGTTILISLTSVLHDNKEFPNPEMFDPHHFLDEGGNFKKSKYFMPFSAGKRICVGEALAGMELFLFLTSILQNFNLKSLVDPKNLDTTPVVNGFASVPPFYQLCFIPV
Method in brief: (§2)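 Pooled human liver microsomes (0.1 mg/mL) with probe cocktail incl. 5 μM diclofenac (CYP2C9) and 30 μM mephenytoin (CYP2C19), 1 mM NADPH, pH 7.4 phosphate buffer, 10 min at 37° C. Metabolites quantified by LC/MS/MS against internal standard; % inhibition versus no-inhibitor control, IC50 by non-linear regression.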

[3] = target: T3, CYP2C19 (Homo sapiens, UniProt P33261); experiment: Cocktail assay for CYPs, mephenytoin 4′-hydroxylation (CYP2C19), human liver microsomes; settings: 0.1 mg/mL human liver microsomes, 10 min at 37° C.
T3 construct: 0.1 mg/mL protein human liver microsomes (BD Gentest); tissue BD Gentest; host or cells: human liver microsomes
T3 sequence (P33261 whole entry): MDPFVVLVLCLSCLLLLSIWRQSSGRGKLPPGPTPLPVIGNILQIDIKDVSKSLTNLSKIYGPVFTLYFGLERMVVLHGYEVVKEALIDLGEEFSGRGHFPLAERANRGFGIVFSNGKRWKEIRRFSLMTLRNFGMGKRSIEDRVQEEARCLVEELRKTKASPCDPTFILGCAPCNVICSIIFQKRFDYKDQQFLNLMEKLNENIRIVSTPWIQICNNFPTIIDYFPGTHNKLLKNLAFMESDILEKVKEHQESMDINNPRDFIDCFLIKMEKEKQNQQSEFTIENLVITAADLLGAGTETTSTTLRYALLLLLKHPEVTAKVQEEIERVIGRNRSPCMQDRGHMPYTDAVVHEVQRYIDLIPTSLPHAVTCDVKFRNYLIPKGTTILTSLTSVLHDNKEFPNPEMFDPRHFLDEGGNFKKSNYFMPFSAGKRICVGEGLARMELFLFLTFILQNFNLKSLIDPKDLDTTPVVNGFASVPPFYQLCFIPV
Method in brief: as §2

[4] = target: T4, CYP2D6 (Homo sapiens, UniProt P10635); experiment: Cocktail assay for CYPs, dextromethorphan O-demethylation (CYP2D6), human liver microsomes; settings: 5 μM dextromethorphan, 0.1 mg/mL human liver microsomes, 10 min at 37° C.; read-out: CYP IC50 (nM) 2D6
T4 construct: 0.1 mg/mL protein human liver microsomes (BD Gentest); tissue BD Gentest; host or cells: human liver microsomes
T4 sequence (P10635 whole entry): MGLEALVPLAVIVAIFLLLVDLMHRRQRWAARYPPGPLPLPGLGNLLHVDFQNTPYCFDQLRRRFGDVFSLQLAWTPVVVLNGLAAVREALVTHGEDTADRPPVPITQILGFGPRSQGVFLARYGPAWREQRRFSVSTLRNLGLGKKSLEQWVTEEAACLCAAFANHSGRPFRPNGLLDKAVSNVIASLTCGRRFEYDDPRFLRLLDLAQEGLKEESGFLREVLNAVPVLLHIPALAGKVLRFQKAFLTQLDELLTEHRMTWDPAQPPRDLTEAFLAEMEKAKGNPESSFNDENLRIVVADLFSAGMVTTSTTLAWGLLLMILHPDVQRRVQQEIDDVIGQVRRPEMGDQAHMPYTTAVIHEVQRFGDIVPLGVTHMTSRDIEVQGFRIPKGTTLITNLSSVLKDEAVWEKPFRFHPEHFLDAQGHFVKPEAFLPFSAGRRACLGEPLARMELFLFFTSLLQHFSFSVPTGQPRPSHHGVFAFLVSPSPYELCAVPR
Method in brief: as §1

[5] = target: T5, CYP3A4 (Homo sapiens, UniProt P08684); experiment: Cocktail assay for CYPs, midazolam 1′-hydroxylation (CYP3A4), human liver microsomes; set-up: 0.1 mg/mL protein human liver microsomes (BD Gentest); tissue BD Gentest; host or cells: human liver microsomes; settings: 2 μM midazolam, 0.1 mg/mL human liver microsomes, 10 min at 37° C.; read-out: CYP IC50 (nM) 3A4 (MDZ)
Method in brief: as §1
Target sequence in this assay (P08684 whole entry): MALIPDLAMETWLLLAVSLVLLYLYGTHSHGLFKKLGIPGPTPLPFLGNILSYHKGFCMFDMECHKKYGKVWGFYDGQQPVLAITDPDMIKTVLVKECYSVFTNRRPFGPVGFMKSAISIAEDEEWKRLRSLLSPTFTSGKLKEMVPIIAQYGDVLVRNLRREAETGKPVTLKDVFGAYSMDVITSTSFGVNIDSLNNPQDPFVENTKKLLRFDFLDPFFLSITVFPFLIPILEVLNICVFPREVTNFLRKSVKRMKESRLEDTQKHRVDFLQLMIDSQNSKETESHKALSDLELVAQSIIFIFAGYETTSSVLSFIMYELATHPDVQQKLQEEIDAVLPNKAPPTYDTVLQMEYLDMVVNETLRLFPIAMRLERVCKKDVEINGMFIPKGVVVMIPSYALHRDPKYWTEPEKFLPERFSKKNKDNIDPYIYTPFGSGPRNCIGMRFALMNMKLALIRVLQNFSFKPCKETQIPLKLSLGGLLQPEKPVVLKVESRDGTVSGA

[6] = target: T5, CYP3A4; experiment: IC50 vs CYP3A by inhibition of lopinavir metabolism in human liver microsomes; set-up: 0.01 mg/mL protein human liver microsomes (BD Gentest); tissue BD Gentest; host or cells: human liver microsomes; settings: 1.5 μM lopinavir, 0.01 mg/mL human liver microsomes, 8 min at 37° C.; read-out: CYP IC50 (nM) 3A4 (LPV)
Method in brief: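 Human liver microsomes (0.01 mg/mL) with 1.5 μM lopinavir, 1 mM NADPH, 3.3 mM MgCl2 in 100 mM potassium phosphate pH 7.4, 8 min at 37 °C, six compound concentrations. Summed M2/M3/M4 hydroxy metabolites quantified by LC/MS/MS against tolbutamide; % inhibition normalised between no-inhibitor and 5 μM ketoconazole controls, IC50 by non-linear regression.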
Target sequence in this assay (P08684 2-503): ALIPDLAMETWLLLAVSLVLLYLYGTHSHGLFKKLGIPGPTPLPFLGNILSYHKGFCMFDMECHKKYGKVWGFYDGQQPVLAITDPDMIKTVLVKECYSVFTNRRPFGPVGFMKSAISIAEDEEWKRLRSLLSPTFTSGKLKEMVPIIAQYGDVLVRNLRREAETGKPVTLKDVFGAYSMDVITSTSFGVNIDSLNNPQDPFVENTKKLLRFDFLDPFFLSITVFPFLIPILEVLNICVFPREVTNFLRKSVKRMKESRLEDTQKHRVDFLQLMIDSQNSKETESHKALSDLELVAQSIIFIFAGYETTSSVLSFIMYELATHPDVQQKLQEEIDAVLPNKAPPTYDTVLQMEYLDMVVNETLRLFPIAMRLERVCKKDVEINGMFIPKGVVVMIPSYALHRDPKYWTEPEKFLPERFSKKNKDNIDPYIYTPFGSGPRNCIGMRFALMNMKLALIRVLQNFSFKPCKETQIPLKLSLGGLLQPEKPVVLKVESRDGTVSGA

[7] = 5 μM diclofenac, read-out: CYP IC50 (nM) 2C9
[8] = 30 μM mephenytoin, read-out: CYP IC50 (nM) 2C19

IC50 [1] [nM]	IC50 [2, 7] [nM]	IC50 [3, 8] [nM]	IC50 [4] [nM]	IC50 [5] [nM]	IC50 [6] [nM]	SMILES	IC50 ([2]; CYP IC50 (nM) 2C9, 5 μM diclofenac) [nM]	IC50 ([3]; CYP IC50 (nM) 2C19, 30 μM mephenytoin) [nM]
190	209	393	2230	4.52	1.4	O=S(=O)(c1ccc(N2CCC(O)CC2)nc1)N1CCCC1c1cccc(-c2cncn2CCc2ccc(F)cc2)c1 (single isomer, unassigned) [Compound 57b, (R or S)-1-(5-((2-(3-(1-(4-fluorophenethyl)-1H-imidazol-5-yl)phenyl)pyrrolidin-1-yl)sulfonyl)pyridin-2-yl) piperidin-4-ol]		
> 10000	6380	4740	8580	34.5	28.2	CC(C)OC(=O)N1CCCC1c1ccccc1-c1cncn1CCc1ccc(F)cc1 (single isomer, unassigned) [Compound 39b, (R or S)-isopropyl 2-(2-(1-(4-fluorophenethyl)-1H-imidazol-5-yl)phenyl) pyrrolidine-1-carboxylate]		
> 10000	3550	4230	3130	4.7	1.6	O=S(=O)(c1cnc(N2CCN3C[C@H](O)C[C@H]3C2)s1)N1CCc2c(cccc2-c2cncn2CCc2ccc(F)cc2)C1 [Compound 64, (7R,8aS)-2-(5-((5-(1-(4-fluorophenethyl)-1H-imidazol-5-yl)-3,4-dihydroisoquinolin-2(1H)-yl)sulfonyl)thiazol-2-yl)octahydro-pyrrolo[1,2-a] pyrazin-7-ol]		
367	365	331	2200	10.4	3.7	O=S(=O)(c1ccc(N2CCC(O)CC2)nc1)N1CCCC1c1cccc(-c2cncn2CCc2ccc(F)cc2)c1 (single isomer, unassigned) [Compound 57a, (R or S)-1-(5-((2-(3-(1-(4-fluorophenethyl)-1H-imidazol-5-yl)phenyl)pyrrolidin-1-yl)sulfonyl)pyridin-2-yl) piperidin-4-ol]		
1470	216	149	2330	5.47	2.1	COc1ccc(OC)c(S(=O)(=O)N2CCCC2c2cccc(-c3cncn3CCc3ccc(F)cc3)c2)c1 (single isomer, unassigned) [Compound 53b, (R or S)-5-(3-(1-((2,5-Dimethoxy-phenyl)sulfonyl)pyrrolidin-2-yl)phenyl)-1-(4-fluorophenethyl)-1H-imidazole]		
7020	6300	> 10000	3940	5.3	1.4	O=S(=O)(c1cnc(N2CCN3C[C@H](O)C[C@H]3C2)s1)N1CCCC1c1ccccc1-c1cncn1CCc1ccc(F)cc1 (single isomer, unassigned) [Compound 22a, (7R,8aS)-2-(5-(((R or S)-2-(2-(1-(4-fluoro-phenethyl)-1H-imidazol-5-yl)phenyl)pyrrolidin-1-yl)sulfonyl)thiazol-2-yl) octahydro-pyrrolo[1,2-a] pyrazin-7-ol]		
5020	1160	1360	1650	3.8	1	O=S(=O)(c1ccc2c(c1)OCO2)N1CCCC1c1ccccc1-c1cncn1CCc1ccc(F)cc1 (stereo not drawn) [Compound 26, 5-(2-(1-(benzo[d][1,3]dioxol-5-ylsulfonyl)pyrrolidin-2-yl)phenyl)-1-(4-fluorophenethyl)-1H-imidazole]		
8560	565	281	1200	4.4	1.9	CC(=O)Nc1ncc(S(=O)(=O)N2CCCC2c2ccc(-c3cncn3CCc3ccc(F)cc3)cc2)s1 (stereo not drawn) [Compound 8, N-(5-((2-(4-(1-(4-fluorophenethyl)-1H-imidazol-5-yl)phenyl)pyrrolidin-1-yl)sulfonyl)thiazol-2-yl)acetamide]		
3820	1860	3260	2930	8.3	7.6	O=S(=O)(c1ccc(N2CCOCC2)nc1)N1CCCC1c1ccccc1-c1cncn1CCc1ccc(F)cc1 (stereo not drawn) [Compound 29, 4-(5-((2-(2-(1-(4-fluorophenethyl)-1H-imidazol-5-yl)phenyl)pyrrolidin-1-yl)sulfonyl)pyridin-2-yl)morpholine]		
2650	1910	3800	3480	36.1	41	COc1ccc(OC)c(S(=O)(=O)N2CCCC2c2ccccc2-c2cncn2CCc2ccc(F)cc2)c1 (stereo not drawn) [Compound 27, 5-(2-(1-((2,5-dimethoxyphenyl)sulfonyl)pyrrolidin-2-yl)phenyl)-1-(4-fluorophenethyl)-1H-imidazole]		

SMILES	IC50 [1] [nM]	IC50 [2, 7] [nM]	IC50 [3, 8] [nM]	IC50 [4] [nM]	IC50 [5] [nM]	IC50 [6] [nM]	IC50 ([2]; CYP IC50 (nM) 2C9, 5 μM diclofenac) [nM]	IC50 ([3]; CYP IC50 (nM) 2C19, 30 μM mephenytoin) [nM]
C[C@H](NS(=O)(=O)c1cnc(N2CCN3C[C@H](O)C[C@H]3C2)s1)c1ccccc1-c1cncn1CCc1ccc(F)cc1 [Compound 6b, N-((S)-1-(2-(1-(4-fluorophenethyl)-1H-imidazol-5-yl)phenyl)ethyl)-2-((7R,8aS)-7-hydroxy-hexahydro-pyrrolo[1,2-a]pyrazin-2(1H)-yl)thiazole-5-sulfonamide]	> 10000			3500	30	40.3	5450	> 10000
